Values of other authors, collected in PMC8513935.
Each block holds one compound with its values, some of them ahead of it.

Legend:
[1] = experimental, compiled by the authors from the literature (the ESI cites the sources)
[2] = derived by the authors as gas->solvent minus gas->water (a hypothetical dry solvent; the ESI), not a two-phase measurement
[3] = log P octanol/water from commercial databases, averaged (the ESI); conditions: Octanol (wet), 25 C

Structure (SMILES): CC(C)=O
log K of transfer, gas to solvent ([1]; 1,2-Dichloroethane, 25 C): 3.13 log10 K
log K of transfer, gas to solvent ([1]; Acetonitrile, 25 C): 3.14 log10 K
log K of transfer, gas to solvent ([1]; Benzene, 25 C): 2.78 log10 K
log K of transfer, gas to solvent ([1]; Butan-1-ol, 25 C): 2.57 log10 K
log K of transfer, gas to solvent ([1]; Butanone, 25 C): 2.92 log10 K
log K of transfer, gas to solvent ([1]; CCl4, 25 C): 2.38 log10 K
log K of transfer, gas to solvent ([1]; Chlorobenzene, 25 C): 2.66 log10 K
log K of transfer, gas to solvent ([1]; Chloroform, 25 C): 3.29 log10 K
log K of transfer, gas to solvent ([1]; Cyclohexane, 25 C): 1.88 log10 K
log K of transfer, gas to solvent ([1]; Cyclohexanone, 25 C): 2.79 log10 K
log K of transfer, gas to solvent ([1]; Di-n-butyl ether, 25 C): 2.25 log10 K
log K of transfer, gas to solvent ([1]; Dichloromethane, 25 C): 3.39 log10 K
log K of transfer, gas to solvent ([1]; Diethyl Ether, 25 C): 2.57 log10 K
log K of transfer, gas to solvent ([1]; Ethanol, 25 C): 2.77 log10 K
log K of transfer, gas to solvent ([1]; Hexadecane, 25 C): 1.7 log10 K
log K of transfer, gas to solvent ([1]; Hexane, 25 C): 1.96 log10 K
log K of transfer, gas to solvent ([1]; Methanol, 25 C): 2.89 log10 K
log K of transfer, gas to solvent ([1]; Octan-1-ol, 25 C): 2.31 log10 K
log K of transfer, gas to solvent ([1]; Pentan-1-ol, 25 C): 2.49 log10 K
log K of transfer, gas to solvent ([1]; Propan-2-ol, 25 C): 2.46 log10 K
log K of transfer, gas to solvent ([1]; Propanone, 25 C): 3.04 log10 K
log K of transfer, gas to solvent ([1]; Tetrahydrofuran, 25 C): 2.85 log10 K
log K of transfer, gas to solvent ([1]; Toluene, 25 C): 2.63 log10 K
log K of transfer, gas to solvent ([1]; Water, 25 C): 2.83 log10 K
log K of transfer, water to solvent ([2]; 1,2-Dichloroethane, 25 C): 0.3 log10 K
log K of transfer, water to solvent ([2]; Acetone, 25 C): 0.21 log10 K
log K of transfer, water to solvent ([2]; Acetonitrile, 25 C): 0.31 log10 K
log K of transfer, water to solvent ([2]; Benzene, 25 C): -0.05 log10 K
log K of transfer, water to solvent ([2]; Butan-1-ol, 25 C): -0.26 log10 K
log K of transfer, water to solvent ([2]; Butanone, 25 C): 0.09 log10 K
log K of transfer, water to solvent ([2]; CCl4, 25 C): -0.45 log10 K
log K of transfer, water to solvent ([2]; Chlorobenzene, 25 C): -0.17 log10 K
log K of transfer, water to solvent ([2]; Chloroform, 25 C): 0.46 log10 K
log K of transfer, water to solvent ([2]; Cyclohexane, 25 C): -0.948 log10 K
log K of transfer, water to solvent ([2]; Cyclohexanone, 25 C): -0.041 log10 K
log K of transfer, water to solvent ([2]; Di-n-butyl ether, 25 C): -0.58 log10 K
log K of transfer, water to solvent ([2]; Dichloromethane, 25 C): 0.56 log10 K
log K of transfer, water to solvent ([2]; Diethyl Ether, 25 C): -0.26 log10 K
log K of transfer, water to solvent ([2]; Ethanol, 25 C): -0.06 log10 K
log K of transfer, water to solvent ([2]; Hexadecane, 25 C): -1.13 log10 K
log K of transfer, water to solvent ([2]; Hexane, 25 C): -0.867 log10 K
log K of transfer, water to solvent ([2]; Methanol, 25 C): 0.06 log10 K
log K of transfer, water to solvent ([2]; Octan-1-ol(dry), 25 C): -0.52 log10 K
log K of transfer, water to solvent ([2]; Pentan-1-ol, 25 C): -0.34 log10 K
log K of transfer, water to solvent ([2]; Propan-2-ol, 25 C): -0.37 log10 K
log K of transfer, water to solvent ([2]; Tetrahydrofuran, 25 C): 0.02 log10 K
log K of transfer, water to solvent ([2]; Toluene, 25 C): -0.2 log10 K
log K of transfer, water to solvent [3]: -0.24 log10 K

log K of transfer, gas to solvent ([1]; 1,2-Dichloroethane, 25 C): 3.1 log10 K
log K of transfer, gas to solvent ([1]; Acetonitrile, 25 C): 2.39 log10 K
log K of transfer, gas to solvent ([1]; Butanone, 25 C): 3.14 log10 K
log K of transfer, gas to solvent ([1]; Butyronitrile, 25 C): 2.92 log10 K
log K of transfer, gas to solvent ([1]; CCl4, 25 C): 3.66 log10 K
log K of transfer, gas to solvent ([1]; Chlorobenzene, 25 C): 3.64 log10 K
log K of transfer, gas to solvent ([1]; Chloroform, 25 C): 3.56 log10 K
log K of transfer, gas to solvent ([1]; Cyclohexanone, 25 C): 3.06 log10 K
log K of transfer, gas to solvent ([1]; Dichloromethane, 25 C): 3.4 log10 K
log K of transfer, gas to solvent ([1]; Hexadecane, 25 C): 3.31 log10 K
log K of transfer, gas to solvent ([1]; Hexane, 25 C): 3.64 log10 K
log K of transfer, gas to solvent ([1]; Perfluoroalkane, 25 C): 2.37 log10 K
log K of transfer, gas to solvent ([1]; Propan-2-ol, 25 C): 2.87 log10 K
log K of transfer, gas to solvent ([1]; Propanone, 25 C): 2.95 log10 K
log K of transfer, gas to solvent ([1]; Propionitrile, 25 C): 2.76 log10 K
log K of transfer, gas to solvent ([1]; Tetrahydrofuran, 25 C): 3.53 log10 K
log K of transfer, gas to solvent ([1]; Toluene, 25 C): 3.47 log10 K
log K of transfer, gas to solvent ([1]; Water, 25 C): -2.02 log10 K
log K of transfer, water to solvent ([2]; 1,2-Dichloroethane, 25 C): 5.12 log10 K
log K of transfer, water to solvent ([2]; Acetone, 25 C): 4.97 log10 K
log K of transfer, water to solvent ([2]; Acetonitrile, 25 C): 4.41 log10 K
log K of transfer, water to solvent ([2]; Butanone, 25 C): 5.16 log10 K
log K of transfer, water to solvent ([2]; Butyronitrile, 25 C): 4.94 log10 K
log K of transfer, water to solvent ([2]; CCl4, 25 C): 5.68 log10 K
log K of transfer, water to solvent ([2]; Chlorobenzene, 25 C): 5.66 log10 K
log K of transfer, water to solvent ([2]; Chloroform, 25 C): 5.58 log10 K
log K of transfer, water to solvent ([2]; Cyclohexanone, 25 C): 5.08 log10 K
log K of transfer, water to solvent ([2]; Dichloromethane, 25 C): 5.42 log10 K
log K of transfer, water to solvent ([2]; Hexadecane, 25 C): 5.33 log10 K
log K of transfer, water to solvent ([2]; Hexane, 25 C): 5.66 log10 K
log K of transfer, water to solvent ([2]; Perfluoroalkane, 25 C): 4.39 log10 K
log K of transfer, water to solvent ([2]; Propan-2-ol, 25 C): 4.89 log10 K
log K of transfer, water to solvent ([2]; Propionitrile, 25 C): 4.78 log10 K
log K of transfer, water to solvent ([2]; Tetrahydrofuran, 25 C): 5.55 log10 K
log K of transfer, water to solvent ([2]; Toluene, 25 C): 5.49 log10 K
log K of transfer, water to solvent [3]: 4.8 log10 K
Structure (SMILES): CC(C)CCC(C)C

log K of transfer, gas to solvent ([1]; 2-Methylpropan-1-ol, 25 C): 6.75 log10 K
log K of transfer, gas to solvent ([1]; 2-Methylpropan-2-ol, 25 C): 6.48 log10 K
log K of transfer, gas to solvent ([1]; 3-Methylbutan-1-ol, 25 C): 6.56 log10 K
log K of transfer, gas to solvent ([1]; Acetonitrile, 25 C): 7.12 log10 K
log K of transfer, gas to solvent ([1]; Butan-1-ol, 25 C): 6.71 log10 K
log K of transfer, gas to solvent ([1]; Butan-2-ol, 25 C): 6.56 log10 K
log K of transfer, gas to solvent ([1]; Decan-1-ol, 25 C): 6.84 log10 K
log K of transfer, gas to solvent ([1]; Ethanol, 25 C): 6.54 log10 K
log K of transfer, gas to solvent ([1]; Heptan-1-ol, 25 C): 6.84 log10 K
log K of transfer, gas to solvent ([1]; Hexadecane, 25 C): 6.92 log10 K
log K of transfer, gas to solvent ([1]; Hexan-1-ol, 25 C): 6.79 log10 K
log K of transfer, gas to solvent ([1]; Hexane, 25 C): 6.81 log10 K
log K of transfer, gas to solvent ([1]; Methanol, 25 C): 6.48 log10 K
log K of transfer, gas to solvent ([1]; Octan-1-ol, 25 C): 6.83 log10 K
log K of transfer, gas to solvent ([1]; Pentan-1-ol, 25 C): 6.77 log10 K
log K of transfer, gas to solvent ([1]; Propan-1-ol, 25 C): 6.66 log10 K
log K of transfer, gas to solvent ([1]; Propan-2-ol, 25 C): 6.54 log10 K
log K of transfer, gas to solvent ([1]; Water, 25 C): 2.45 log10 K
log K of transfer, water to solvent ([2]; 2-Methylpropan-1-ol, 25 C): 4.3 log10 K
log K of transfer, water to solvent ([2]; 2-Methylpropan-2-ol, 25 C): 4.03 log10 K
log K of transfer, water to solvent ([2]; 3-Methylbutan-1-ol, 25 C): 4.11 log10 K
log K of transfer, water to solvent ([2]; Acetonitrile, 25 C): 4.67 log10 K
log K of transfer, water to solvent ([2]; Butan-1-ol, 25 C): 4.26 log10 K
log K of transfer, water to solvent ([2]; Butan-2-ol, 25 C): 4.11 log10 K
log K of transfer, water to solvent ([2]; Decan-1-ol, 25 C): 4.39 log10 K
log K of transfer, water to solvent ([2]; Ethanol, 25 C): 4.09 log10 K
log K of transfer, water to solvent ([2]; Heptan-1-ol, 25 C): 4.39 log10 K
log K of transfer, water to solvent ([2]; Hexadecane, 25 C): 4.47 log10 K
log K of transfer, water to solvent ([2]; Hexan-1-ol, 25 C): 4.34 log10 K
log K of transfer, water to solvent ([2]; Hexane, 25 C): 4.36 log10 K
log K of transfer, water to solvent ([2]; Methanol, 25 C): 4.03 log10 K
log K of transfer, water to solvent ([2]; Octan-1-ol(dry), 25 C): 4.38 log10 K
log K of transfer, water to solvent ([2]; Pentan-1-ol, 25 C): 4.32 log10 K
log K of transfer, water to solvent ([2]; Propan-1-ol, 25 C): 4.21 log10 K
log K of transfer, water to solvent ([2]; Propan-2-ol, 25 C): 4.09 log10 K
log K of transfer, water to solvent [3]: 4.18 log10 K
Structure (SMILES): c1ccc2c(c1)Cc1ccccc1-2

log K of transfer, gas to solvent ([1]; Decan-1-ol, 25 C): 9.86 log10 K
log K of transfer, gas to solvent ([1]; Di-n-butyl ether, 25 C): 9.63 log10 K
log K of transfer, gas to solvent ([1]; Diethyl Ether, 25 C): 9.91 log10 K
log K of transfer, gas to solvent ([1]; Hexadecane, 25 C): 8.65 log10 K
log K of transfer, gas to solvent ([1]; Hexan-1-ol, 25 C): 9.93 log10 K
log K of transfer, gas to solvent ([1]; Octan-1-ol, 25 C): 9.9 log10 K
log K of transfer, gas to solvent ([1]; Propan-2-ol, 25 C): 10 log10 K
log K of transfer, gas to solvent ([1]; Water, 25 C): 2.02 log10 K
log K of transfer, water to solvent ([2]; Decan-1-ol, 25 C): 7.84 log10 K
log K of transfer, water to solvent ([2]; Di-n-butyl ether, 25 C): 7.61 log10 K
log K of transfer, water to solvent ([2]; Diethyl Ether, 25 C): 7.89 log10 K
log K of transfer, water to solvent ([2]; Hexadecane, 25 C): 6.63 log10 K
log K of transfer, water to solvent ([2]; Hexan-1-ol, 25 C): 7.92 log10 K
log K of transfer, water to solvent ([2]; Octan-1-ol(dry), 25 C): 7.88 log10 K
log K of transfer, water to solvent ([2]; Propan-2-ol, 25 C): 8.03 log10 K
log K of transfer, water to solvent [3]: 7.32 log10 K
Structure (SMILES): CCCCCCCCCCCCCCCCO
